According to US11666558B2, “Methods of treating intraocular pressure with activators of Tie-2” (EyePoint Pharmaceuticals, Inc., priority 2015, dated 2023):
Values belong to the compound of their own block, whether it stands above or below them.

Key:
HPTP-β = HPTP-β (Homo sapiens (Human), UniProt P23467); experiment: HPTP-β inhibitory activity (IC50); type: biochemical
intraocular pressure = experiment: Intraocular pressure, Compound 1 with sham or ranibizumab, Months 1-3 (FIG. 2, TABLE 1); type: in vivo
Protocol: The difference in IOP was determined relative to a pre-treatment baseline (Base) at months 1, 2, and 3 (M1-M3). Intraocular pressure was determined in the study eye in millimeters of mercury (mmHg). […] The difference in IOP was determined relative to a pre-treatment Baseline at Months 1, 2 and 3. Intraocularpressure was determined in the study eye/fellow eye in mmHg.

Sequence of HPTP-β (P23467 23-1997): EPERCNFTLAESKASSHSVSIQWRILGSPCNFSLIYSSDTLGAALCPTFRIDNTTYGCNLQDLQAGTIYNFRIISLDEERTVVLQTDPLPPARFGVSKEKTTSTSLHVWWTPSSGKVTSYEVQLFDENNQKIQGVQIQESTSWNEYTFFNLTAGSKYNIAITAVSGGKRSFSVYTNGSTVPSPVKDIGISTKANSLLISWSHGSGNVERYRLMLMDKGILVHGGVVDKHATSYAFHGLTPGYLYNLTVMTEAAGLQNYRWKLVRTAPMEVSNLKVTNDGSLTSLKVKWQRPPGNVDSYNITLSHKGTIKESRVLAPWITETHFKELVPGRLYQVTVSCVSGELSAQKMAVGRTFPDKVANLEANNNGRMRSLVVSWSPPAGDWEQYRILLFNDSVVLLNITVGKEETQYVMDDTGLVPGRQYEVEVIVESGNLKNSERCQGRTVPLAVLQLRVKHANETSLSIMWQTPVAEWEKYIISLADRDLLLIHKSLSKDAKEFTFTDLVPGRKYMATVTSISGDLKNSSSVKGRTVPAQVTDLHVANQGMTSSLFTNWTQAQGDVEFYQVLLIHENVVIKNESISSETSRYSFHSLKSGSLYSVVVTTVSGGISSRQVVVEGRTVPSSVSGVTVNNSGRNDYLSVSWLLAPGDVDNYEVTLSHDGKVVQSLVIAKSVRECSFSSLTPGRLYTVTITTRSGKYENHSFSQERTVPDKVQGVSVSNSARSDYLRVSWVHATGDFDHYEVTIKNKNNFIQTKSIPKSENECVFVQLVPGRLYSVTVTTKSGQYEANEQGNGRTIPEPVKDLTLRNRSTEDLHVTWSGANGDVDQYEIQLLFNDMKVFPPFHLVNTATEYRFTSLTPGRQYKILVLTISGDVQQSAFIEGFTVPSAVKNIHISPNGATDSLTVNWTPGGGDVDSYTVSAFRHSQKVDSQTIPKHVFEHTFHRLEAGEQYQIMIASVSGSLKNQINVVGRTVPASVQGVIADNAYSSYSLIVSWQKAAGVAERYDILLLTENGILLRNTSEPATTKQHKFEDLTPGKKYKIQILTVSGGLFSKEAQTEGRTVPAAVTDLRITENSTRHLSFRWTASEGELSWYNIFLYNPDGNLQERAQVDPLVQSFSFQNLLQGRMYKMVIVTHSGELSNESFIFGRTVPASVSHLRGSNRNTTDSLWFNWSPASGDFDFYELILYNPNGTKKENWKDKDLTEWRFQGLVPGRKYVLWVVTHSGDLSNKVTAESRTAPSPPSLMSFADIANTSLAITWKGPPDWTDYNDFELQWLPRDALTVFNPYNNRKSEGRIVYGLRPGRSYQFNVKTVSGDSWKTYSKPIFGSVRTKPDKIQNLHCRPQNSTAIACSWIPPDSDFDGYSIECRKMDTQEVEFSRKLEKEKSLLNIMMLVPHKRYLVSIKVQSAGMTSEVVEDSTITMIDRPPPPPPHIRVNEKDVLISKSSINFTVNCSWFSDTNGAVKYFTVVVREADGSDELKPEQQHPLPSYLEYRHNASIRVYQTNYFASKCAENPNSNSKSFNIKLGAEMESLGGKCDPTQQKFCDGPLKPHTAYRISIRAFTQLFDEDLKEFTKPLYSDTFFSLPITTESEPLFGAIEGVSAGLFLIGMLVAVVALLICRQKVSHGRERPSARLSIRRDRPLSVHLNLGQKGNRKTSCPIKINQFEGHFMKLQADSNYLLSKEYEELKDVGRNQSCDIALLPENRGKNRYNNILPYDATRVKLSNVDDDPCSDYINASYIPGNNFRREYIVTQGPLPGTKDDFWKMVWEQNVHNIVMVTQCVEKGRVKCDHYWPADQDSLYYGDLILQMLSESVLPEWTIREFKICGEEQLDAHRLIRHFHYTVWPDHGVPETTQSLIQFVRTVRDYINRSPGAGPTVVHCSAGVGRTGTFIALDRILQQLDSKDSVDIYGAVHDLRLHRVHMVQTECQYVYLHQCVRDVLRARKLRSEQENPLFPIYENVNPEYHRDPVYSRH

Compound: COC(=O)N[C@@H](Cc1ccccc1)C(=O)N[C@@H](Cc1ccc(NS(=O)(=O)O)cc1)c1nc(-c2ccccc2)cs1 [AA21]
IC50 (HPTP-β): < 0.002 nM

Compound: ranibizumab [placebo + RBZ]
IOP, fellow eye (intraocular pressure; Baseline (pre-treatment)): 15.8 mmHg
IOP, study eye (intraocular pressure; Baseline (pre-treatment)): 15.2 mmHg
IOP, fellow eye (intraocular pressure; Month 1): 15.5 mmHg
IOP, study eye (intraocular pressure; Month 1): 15.0 mmHg
IOP, fellow eye (intraocular pressure; Month 2): 15.5 mmHg
IOP, study eye (intraocular pressure; Month 2): 15.0 mmHg
IOP, fellow eye (intraocular pressure; Month 3): 15.7 mmHg
IOP, study eye (intraocular pressure; Month 3): 15.3 mmHg

Next, values leading:

IC50 (HPTP-β): 555 nM
Compound: CC(C)(C)OC(=O)N[C@@H](Cc1ccc(NS(=O)(=O)O)cc1)c1csc(OC(=O)C(C)(C)C)n1 [AA71]

IC50 (HPTP-β): 6 nM
Compound: CCc1csc([C@H](Cc2ccc(NS(=O)(=O)O)cc2)NC(=O)[C@H](CC(C)C)NC(=O)OC(C)(C)C)n1 [AA42]

IC50 (HPTP-β): 31 nM
Compound: CCc1csc([C@H](Cc2ccc(NS(=O)(=O)O)cc2)NC(=O)[C@H](CNC(=O)OC(C)(C)C)Cc2ccccc2)n1 [AA3]
